Measurements from patent publication US20110293745A1, “AURORA KINASE INHIBITORS” (SUNESIS PHARMACEUTICALS, INC., priority 2008, published 2011).
Where two headings read alike, the source gives them in different places.

What was measured:
[1] = Humidity-controlled form conversion; assay type: physicochemical
Procedure: The samples were monitored each week for a total duration of five weeks. Each sample was tested by XRPD, DSC, TGA, and Karl Fisher analysis.

[2] = Dynamic Vapor Sorption (DVS); assay type: physicochemical; settings: for DVS Result (hygroscopicity): Dynamic Vapor Sorption of crystalline form of Compound 1
Procedure: DVS experiments were carried out on all available forms by first drying the sample at 0% RH and 25° C. until an equilibrium weight was reached or a maximum of four hours. The sample was then subjected to an isothermal (25° C.) adsorption scan from 10 to 90% RH in steps of 10% RH. The sample was allowed to equilibrate to an asymptotic weight at each point for a maximum of four hours. Following adsorption, a desorption scan from […] to 0% RH (at 25° C.) was run in steps of −10% RH again allowing a maximum of four hours for equilibration to an asymptotic weight. The sample was then dried for two hours at 80° C. and the resulting solid analyzed by XRPD.

[3] = Reslurry of Form A in 20 solvents; assay type: physicochemical; settings: THF, EtOAc, MeCN, acetone, MEK, IPA, dioxane, MTBE, IPAc, heptane, CH2Cl2, toluene; room temperature, two weeks
Procedure: Various amounts of solvents were added to each vial to form slurries which were allowed to stir at room temperature for two weeks. The slurries were then filtered with the help of a gentle nitrogen flow. The samples were further dried in vacuo at room temperature for two hours, except the sample from formamide which was dried in vacuo for about 20 hours.
After two weeks, the samples were filtered and then analyzed by XRPD, DSC, and TGA. Three new forms were found from the slurry studies. These Forms I, K, and L were generated from AcOH, NMP, and DMF, respectively. The slurry samples from other solvents afforded results consistent with the single solvent recrystallizations. […] Forms D, E, G, and H were generated from reslurry experiments in DMA, formamide, methanol, and ethanol, respectively.

[4] = Procedure: The solvents were chosen based on differences in polarity and functionality and on their classification according to the International Conference on Harmonization (ICH), with preference given to class II and class III solvents. After each addition of solvent, the vials were visually inspected to assess dissolution and further heated to 55° C. to ensure dissolution.
HCT 116 p53+/+ = experiment: In vitro combination, HCS cell count assay (CI50); assay type: cell-based, human; settings: HCT 116 p53+/+ and p53−/−; dependent on ratios or p53 status
Procedure: A combination index compares the concentration of compounds dosed in combination required for a given fractional effect to the concentration of single agent compound required to give the same fractional affect. In this application, the fractional effect is EC50.
The equation above represents the theoretical additive response for two mutually exclusive drugs, and takes into consideration the ratio at which the two compounds are dosed. […].
[…]. High content cell imaging and a cell proliferation assay were used to measure the anti-proliferative effects of the compounds.
HCT 116 cells transfected with p53 RNAi or a control vector were cultured in DMEM, 10% FBS, and 1× antibiotic/antimycotic. Cells were plated in growth medium in black/clear Falcon® 384-well plates. Cells were treated to assess the effects of p53 status, drug dose ratios, and dose schedules. […]. […] All procedures were performed by a Tecan robotic platform.
After overnight growth, cells were treated with compound for a total of 72 hours and incubated at 37° C., 5% CO2. Cells were fixed in 4% formaldehyde and stained with 1:4000 dilution of 10 mg/mL Hoechst 33342. HCS images were captured and data analyzed using the Target Activation application, object count per field parameter, on the ArrayScan VTI instrument (Cellomics, Inc.).

[5] = test system: HCT 116 p53−/− (p53 RNAi); experiment: In vitro combination, HCS cell count assay (CI50); assay type: cell-based, human; settings: p53−/− HCT 116 cells; high doses of vincristine
Procedure: Cells were plated in growth medium in black/clear Falcon® 384-well plates. Cells were treated to assess the effects of p53 status, drug dose ratios, and dose schedules. […] All procedures were performed by a Tecan robotic platform.

SMILES: CS(=O)(=O)O.O=C(Nc1cccc(Cl)c1)Nc1ncc(CCNc2ncnc3ccsc23)s1 [A]
- KF ([1]; 0% RH, week 1): 0.17 Wt % H2O
- TGA Loss ([1]; 0% RH, week 1): 0.0 Wt %
- KF ([1]; 0% RH, week 2): <0.1 Wt % H2O
- TGA Loss ([1]; 0% RH, week 2): 0.0 Wt %
- KF ([1]; 0% RH, week 3): 0.11 Wt % H2O
- TGA Loss ([1]; 0% RH, week 3): 0.0 Wt %
- KF ([1]; 0% RH, week 4): <0.1 Wt % H2O
- TGA Loss ([1]; 0% RH, week 4): 0.0 Wt %
- KF ([1]; 0% RH, week 5): 0.1 Wt % H2O
- TGA Loss ([1]; 0% RH, week 5): 0.0 Wt %
- KF ([1]; 20% RH, week 1): 0.16 Wt % H2O
- TGA Loss ([1]; 20% RH, week 1): 0.0 Wt %
- KF ([1]; 20% RH, week 2): 0.12 Wt % H2O
- TGA Loss ([1]; 20% RH, week 2): 0.0 Wt %
- KF ([1]; 20% RH, week 3): 0.11 Wt % H2O
- TGA Loss ([1]; 20% RH, week 3): 0.0 Wt %
- KF ([1]; 20% RH, week 4): <0.1 Wt % H2O
- TGA Loss ([1]; 20% RH, week 4): 0.0 Wt %
- KF ([1]; 20% RH, week 5): 0.2 Wt % H2O
- TGA Loss ([1]; 20% RH, week 5): 0.0 Wt %
- KF ([1]; 52% RH, week 1): 0.29 Wt % H2O
- TGA Loss ([1]; 52% RH, week 1): 0.0 Wt %
- KF ([1]; 52% RH, week 2): 0.16 Wt % H2O
- TGA Loss ([1]; 52% RH, week 2): 0.0 Wt %
- KF ([1]; 52% RH, week 3): 0.11 Wt % H2O
- TGA Loss ([1]; 52% RH, week 3): 0.0 Wt %
- KF ([1]; 75% RH, week 1): 0.12 Wt % H2O
- TGA Loss ([1]; 75% RH, week 1): 0.0 Wt %
- KF ([1]; 75% RH, week 2): 0.13 Wt % H2O
- TGA Loss ([1]; 75% RH, week 2): 0.0 Wt %
- KF ([1]; 75% RH, week 3): 0.19 Wt % H2O
- TGA Loss ([1]; 75% RH, week 3): 0.0 Wt %
- KF ([1]; 75% RH, week 4): <0.1 Wt % H2O
- TGA Loss ([1]; 75% RH, week 4): 0.0 Wt %
- KF ([1]; 75% RH, week 5): 0.3 Wt % H2O
- TGA Loss ([1]; 75% RH, week 5): 0.0 Wt %
- KF ([1]; 95% RH, week 1): 1.5 Wt % H2O
- TGA Loss ([1]; 95% RH, week 1): 0.1 Wt %
- KF ([1]; 95% RH, week 2): 3.2 Wt % H2O
- KF ([1]; 95% RH, week 3): 3.7 Wt % H2O
- KF ([1]; 95% RH, week 4): 3.5 Wt % H2O
- TGA Loss ([1]; 95% RH, week 4): 1.5 Wt %
- KF ([1]; 95% RH, week 5): 3.9 Wt % H2O
- KF ([1]; starting point, week 0): 0.07 Wt % H2O
- TGA Loss ([1]; starting point, week 0): 0.0 Wt %

SMILES: CS(=O)(=O)O.O=C(Nc1cccc(Cl)c1)Nc1ncc(CCNc2ncnc3ccsc23)s1 [B]
- DVS Result (hygroscopicity) [2]: change, low
- KF ([1]; 0% RH, week 1): 1.4 Wt % H2O
- KF ([1]; 0% RH, week 2): 3.4 Wt % H2O
- KF ([1]; 0% RH, week 3): 3.6 Wt % H2O
- KF ([1]; 0% RH, week 4): 3.0 Wt % H2O
- KF ([1]; 0% RH, week 5): 3.4 Wt % H2O
- KF ([1]; 20% RH, week 1): 3.3 Wt % H2O
- KF ([1]; 20% RH, week 2): 3.7 Wt % H2O
- KF ([1]; 20% RH, week 3): 3.6 Wt % H2O
- KF ([1]; 20% RH, week 4): 3.4 Wt % H2O
- KF ([1]; 20% RH, week 5): 3.5 Wt % H2O
- KF ([1]; 52% RH, week 1): 3.0 Wt % H2O
- KF ([1]; 52% RH, week 2): 3.6 Wt % H2O
- KF ([1]; 52% RH, week 3): 3.7 Wt % H2O
- KF ([1]; 52% RH, week 4): 3.3 Wt % H2O
- KF ([1]; 52% RH, week 5): 3.6 Wt % H2O
- KF ([1]; 75% RH, week 1): 3.4 Wt % H2O
- KF ([1]; 75% RH, week 2): 3.4 Wt % H2O
- KF ([1]; 75% RH, week 3): 2.4 Wt % H2O
- KF ([1]; 75% RH, week 4): 3.3 Wt % H2O
- KF ([1]; 95% RH, week 1): 3.2 Wt % H2O
- KF ([1]; 95% RH, week 2): 3.5 Wt % H2O
- KF ([1]; 95% RH, week 3): 4.6 Wt % H2O
- TGA Loss ([1]; 95% RH, week 3): 3.2 Wt %
- KF ([1]; 95% RH, week 4): 3.7 Wt % H2O
- KF ([1]; 95% RH, week 5): 4.7 Wt % H2O
- KF ([1]; starting point, week 0): 3.0 Wt % H2O

SMILES: CS(=O)(=O)O.O=C(Nc1cccc(Cl)c1)Nc1ncc(CCNc2ncnc3ccsc23)s1 [E]
- DVS Result (water uptake) ([2]; at 90% RH): change, 8.0 wt wt %

SMILES: CS(=O)(=O)O.O=C(Nc1cccc(Cl)c1)Nc1ncc(CCNc2ncnc3ccsc23)s1 [Form A]
- form conversion under humidity ([1]; 0, 25, 52, and 75% RH, five weeks): No form conversion
- form conversion under humidity ([1]; 95% RH, two weeks): converted to Form B
- form after reslurry [3]: remained unchanged
- Approximate Solubility Conc. ([4]; Solvent AcOH, Temp RT): >17000 µg/mL
- Soluble ([4]; Solvent AcOH, Temp RT): Yes
- Approximate Solubility Conc. ([4]; Solvent Acetone, Temp 55): <370 µg/mL
- Soluble ([4]; Solvent Acetone, Temp 55): No
- Approximate Solubility Conc. ([4]; Solvent DCM, Temp 55): <430 µg/mL
- Soluble ([4]; Solvent DCM, Temp 55): No
- Approximate Solubility Conc. ([4]; Solvent DMA, Temp RT): >28000 µg/mL
- Soluble ([4]; Solvent DMA, Temp RT): Yes
- Approximate Solubility Conc. ([4]; Solvent DMF, Temp RT): >9000 µg/mL
- Soluble ([4]; Solvent DMF, Temp RT): Yes
- Approximate Solubility Conc. ([4]; Solvent Dioxane, Temp 55): <280 µg/mL
- Soluble ([4]; Solvent Dioxane, Temp 55): No
- Approximate Solubility Conc. ([4]; Solvent EtOAc, Temp 55): <250 µg/mL
- Soluble ([4]; Solvent EtOAc, Temp 55): No
- Approximate Solubility Conc. ([4]; Solvent EtOH, Temp 55): ~630 µg/mL
- Soluble ([4]; Solvent EtOH, Temp 55): Yes
- Approximate Solubility Conc. ([4]; Solvent Formamide, Temp RT): >16000 µg/mL
- Soluble ([4]; Solvent Formamide, Temp RT): Yes
- Approximate Solubility Conc. ([4]; Solvent Heptane, Temp 55): <430 µg/mL
- Soluble ([4]; Solvent Heptane, Temp 55): No
- Approximate Solubility Conc. ([4]; Solvent IPA, Temp 55): <300 µg/mL
- Soluble ([4]; Solvent IPA, Temp 55): Partially
- Approximate Solubility Conc. ([4]; Solvent IPAc, Temp 55): <400 µg/mL
- Soluble ([4]; Solvent IPAc, Temp 55): No
- Approximate Solubility Conc. ([4]; Solvent MEK, Temp 55): <480 µg/mL
- Soluble ([4]; Solvent MEK, Temp 55): No
- Approximate Solubility Conc. ([4]; Solvent MTBE, Temp 55): <200 µg/mL
- Soluble ([4]; Solvent MTBE, Temp 55): No
- Approximate Solubility Conc. ([4]; Solvent MeCN, Temp 55): <420 µg/mL
- Soluble ([4]; Solvent MeCN, Temp 55): No
- Approximate Solubility Conc. ([4]; Solvent MeOH, Temp 55): ~700 µg/mL
- Soluble ([4]; Solvent MeOH, Temp 55): Yes
- Approximate Solubility Conc. ([4]; Solvent NMP, Temp RT): >14000 µg/mL
- Soluble ([4]; Solvent NMP, Temp RT): Yes
- Approximate Solubility Conc. ([4]; Solvent THF, Temp 55): <320 µg/mL
- Soluble ([4]; Solvent THF, Temp 55): No
- Approximate Solubility Conc. ([4]; Solvent Toluene, Temp 55): <330 µg/mL
- Soluble ([4]; Solvent Toluene, Temp 55): No
- Approximate Solubility Conc. ([4]; Solvent Water, Temp 55): <280 µg/mL
- Soluble ([4]; Solvent Water, Temp 55): No
- solubility ([4]; in DMF, NMP, DMA, formamide, AcOH): soluble
- solubility ([4]; in THF, EtOAc, MeCN, acetone, MEK, IPA, water, dioxane, MTBE, IPAc, heptane, CH2Cl2 and toluene): poor solubility
- solubility ([4]; in methanol and ethanol): sparingly soluble

SMILES: CS(=O)(=O)O.O=C(Nc1cccc(Cl)c1)Nc1ncc(CCNc2ncnc3ccsc23)s1 [Form B]
- form conversion under humidity ([1]; all humidity chambers, five weeks): No form conversion

SMILES: CS(=O)(=O)O.O=C(Nc1cccc(Cl)c1)Nc1ncc(CCNc2ncnc3ccsc23)s1 [G]
- DVS Result (hygroscopicity) [2]: change, low

SMILES: CC(=O)O[C@@]12CO[C@@H]1C[C@H](O)[C@@]1(C)C(=O)[C@H](O)C3=C(C)[C@@H](OC(=O)[C@H](O)[C@@H](NC(=O)OC(C)(C)C)c4ccccc4)C[C@@](O)([C@@H](OC(=O)c4ccccc4)[C@H]21)C3(C)C [docetaxel]
- interaction with Compound 1 in cell count assay (HCT 116 p53+/+): conditional synergies

SMILES: Nc1ccn([C@@H]2O[C@H](CO)[C@@H](O)C2(F)F)c(=O)n1 [gemcitabine]
- interaction with Compound 1 in cell count assay (HCT 116 p53+/+): conditional synergies

SMILES: CC[C@]1(O)C[C@H]2CN(CCc3c([nH]c4ccccc34)[C@@](C(=O)OC)(c3cc4c(cc3OC)N(C=O)[C@H]3[C@@](O)(C(=O)OC)[C@H](OC(C)=O)[C@]5(CC)C=CCN6CC[C@]43[C@@H]65)C2)C1 [vincristine]
- interaction with Compound 1 in cell count assay (HCT 116 p53+/+): conditional synergies
- interaction with Compound 1, co-dosed [5]: Statistically significant synergy
